# Patent US8163776B2, “Method of immunomodulation using thione-forming disulfides” (Grassetti family Trust, priority 2001, dated 2012)
# Where “and” joins values, the source holds several entries; their conditions need not be identical. Equal values may be shown once.
# Test system: spleen T cells, B cells and NK cells
# Experiment: Immunophenotyping of splenocytes by flow cytometry
# Type: in vivo, BALB/c mice
# Description: In general, the immunophenotyping technique consisted briefly of isolating cells from the peripheral blood or an organ (spleen or thymus), labeling them with a panel of antibodies specific for certain antigens of the membrane, and allowing to quantify the different populations. Analysis was performed by flow cytometry since antibodies were conjugated with a fluorochrome (Longbardi, Givan, A., 1994, Flow cytometry. First principles, Wiley-Liss Inc. New York.).
# To immunophenotype immune cells, splenocytes were diluted to a concentration of […]. A total of 1×10^6 cells were distributed in a V-shape 96 well plate. A total of 7 wells were necessary for each sample. Plates were centrifuged 5 minutes at 1200 rpm. Supernatant was discarded and pellet were vortexed. Monoclonal antibodies were distributed in each wells according to the following set up:
# The antibodies used are commercially available from Becton Dickinson (San Jose, Calif.). The cells were incubated with the antibodies for 30 minutes on ice, washed three times with D-PBS+1% BSA, spun at 1200 rpm for 5 minutes using a multichannel pipette, suspended in 1 ml of paraformaldehyde 2% (v/v), and transferred into flow cytometry tubes. Samples were analyzed using EPICS XL from Beckman Coulter flow cytometer. Results were expressed as percentage of the population expressing the specific surface antigen. Live population of cells were gated upon using forward scatter (FS) vs. side scatter (SS) to distinguish live cells from dead cells. A total of 10,000 gated cells were counted for statistical relevance. The FL1 band pass filter (set at 525 nm) was used to detect fluoroscein isothiocyanate (FITC) fluorescence. The FL2 band pass filter (set at 575 nm) was used to detect phycoerythrin (PE) fluorescence. The cursors are set accordingly to delineate the positive region. This region should be relative to 1% of the unstained control (cell control). Results are expressed as % of positive population expressing the specific surface antigens. Student's T test was performed between the control group and the treated group. The p value was calculated for statistical significance.
# [1] = 30 days on CPDS diet vs group 1
# [2] = Group 2, 30 days on CPDS diet, Mean ± S.D.
# [3] = Group 2, 30 days on CPDS diet, individual mice
# [4] = Group 6, 6 days on CPDS diet, Mean ± S.D.
# [5] = Group 6, 6 days on CPDS diet, individual mice
structure (smiles),measurement,setting,value
"O=C(O)c1ccc(SSc2ccc(C(=O)O)cn2)nc1 [CPDS, 6,6′-dithiodinicotinic acid]","B cells, variation (%)",6 days on CPDS diet vs Group 5,−1.0%
same,"CD4+, variation (%)",6 days on CPDS diet vs Group 5,−8.5%
same,"CD8+, variation (%)",6 days on CPDS diet vs Group 5,−6.8%
same,"NK cells, variation (%)",6 days on CPDS diet vs Group 5,43.5%
same,"Ratio CD4/CD8, variation (%)",6 days on CPDS diet vs Group 5,−1.8%
same,"Total T cells, variation (%)",6 days on CPDS diet vs Group 5,−8.0%
same,"Immunophenotyping: B cells, effect of CPDS diet","6 days, n=3",no significant effect
same,"Immunophenotyping: Ratio CD4/CD8, effect of CPDS diet","6 days, n=3",No effect
same,"Immunophenotyping: T CD4+, effect of CPDS diet","6 days, n=3",No effect
same,"Immunophenotyping: T CD8+, effect of CPDS diet","6 days, n=3",No effect
same,"Immunophenotyping: Total T cells, effect of CPDS diet","6 days, n=3",no significant effect
same,"Immunophenotyping: NK cells, effect of CPDS diet","6 days, n=3, arrow image = increase",tendency toward an increase
same,"B cells, variation (%)",[1],−19.9%
same,"CD4+, variation (%)",[1],−3.9%
same,"CD8+, variation (%)",[1],−11.0%
same,"NK cells, variation (%)",[1],69.4%
same,"Ratio CD4/CD8, variation (%)",[1],7.7%
same,"Total T cells, variation (%)",[1],−1.2%
same,"Immunophenotyping: T CD4+, effect of CPDS diet","30 days, n=8",No effect
same,"Immunophenotyping: Total T cells, effect of CPDS diet","30 days, n=8",No effect
same,"Immunophenotyping: T CD8+, effect of CPDS diet","30 days, n=8, arrow image = decrease",tendency to decrease
same,"Immunophenotyping: Ratio CD4/CD8, effect of CPDS diet","30 days, n=8, arrow image = increase",tendency
same,B cells (%),[2],23.4 ± 2.0%
same,CD4+ (%),[2],23.6 ± 2.3%
same,CD8+ (%),[2],9.6 ± 1.2%
same,NK cells (%),[2],6.9 ± 4.9%
same,Ratio CD4/CD8,[2],2.49 ± 0.26
same,Total T cells (%),[2],38.4 ± 2.9%
same,B cells (%),[3],24.0% and 25.9% and 25.0% and 21.5% and 23.8% and 22.3% and 24.8% and 20.1%
same,CD4+ (%),[3],21.7% (2×) and 24.0% and 28.3% and 25.7% and 23.2% and 22.2% and 22.1%
same,CD8+ (%),[3],8.5% and 9.58% and 10.2% and 11.5% and 9.66% and 7.92% and 8.54% and 10.5%
same,NK cells (%),[3],16.8% and 4.8% (2×) and 11.9% and 3.72% and 2.6% and 5.56% and 4.76%
same,Ratio CD4/CD8,[3],2.55 and 2.27 and 2.35 and 2.46 and 2.66 and 2.93 and 2.60 and 2.1
same,Total T cells (%),[3],35.8% and 36.8% and 39.6% and 44.6% and 39.8% and 37.5% and 36.0% and 37.4%
same,B cells (%),[4],50.3 ± 0.5%
same,CD4+ (%),[4],25.8 ± 2.3%
same,CD8+ (%),[4],13.6 ± 0.9%
same,NK cells (%),[4],11.9 ± 2.7%
same,Ratio CD4/CD8,[4],1.90 ± 0.06
same,Total T cells (%),[4],41.4 ± 2.5%
same,B cells (%),[5],49.8% and 50.7% and 50.3%
same,CD4+ (%),[5],26.4% and 23.3% and 27.8%
same,CD8+ (%),[5],14.0% and 12.6% and 14.2%
same,NK cells (%),[5],9.7% and 14.1% and 9.1%
same,Ratio CD4/CD8,[5],1.89 and 1.85 and 1.96
same,Total T cells (%),[5],42.8% and 38.6% and 42.9%
